{"source": "patent US20030096831A1", "about": "“Ocular growth and nicotinic antagonists” (priority 2000, published 2003)", "key": {"[1]": {"test_system": "chick eye (intraocular muscles, refraction, ocular dimensions)", "test": "Acute drug effects after a single intravitreal injection (pupil, refractometry, ultrasonography)", "assay_type": "in vivo, chicks", "protocol": "Acute drug effects. To assess acute drug effects, other two-week old chicks (n=5/group) received a single unilateral intravitreal injection of one of the nicotinic antagonists at doses chosen based on drug effects on the growth of goggled eyes: 200 μg chlorisondamine, 50 μg and 1 μg mecamylamine, 5 μg methyllycaconitine or […] dihydro-β-erythroidine. Just before and at two hours and 24 hours after injection, both eyes were examined by refractometry and ultrasonography by the above methods."}, "[2]": {"test_system": "retina, retinal pigment epithelium, choroid", "test": "Histopathological effects on goggled and never-goggled eyes", "assay_type": "in vivo, chicks", "conditions": "200 or 50 μg daily, one week; goggled and non-goggled eyes", "protocol": "Histopathological effects. To identify potential histopathologic effects in other groups of monocularly deprived or never-goggled one-week old chicks, chlorisondamine (200 or 100 μg every other day; n=5-6/group), mecamylamine (200 or 50 μg daily; n=5-8/group) or saline vehicle (n=3-9/group) was administered by intravitreal injection to the goggled eyes or to one of the open eyes of never-goggled chicks with vehicle to the contralateral eye, using the identical protocol as above. After one week of treatment, the above protocols provided refraction, ultrasound and caliper measurements. The eyes were then immersion fixed in 3% glutaraldehyde/0.5% paraformaldehyde in 0.1M phosphate buffer, pH 7.4. The posterior segments were either embedded in paraffin, cut at 5 μm thickness and stained with hematoxylin and eosin, or embedded in historesin, cut at 3 μm or 5 μm thickness and stained with 0.5% azure II/0.5% methylene blue in 1% borate."}, "[3]": {"test_system": "non-goggled eyes", "test": "Eye growth and refraction of non-goggled (open) eyes, intravitreal drug for one week", "conditions": "daily intravitreal injections, one week, doses of 50, 10 or 1 μg"}, "[4]": {"test_system": "goggled eyes (form-deprivation myopia)", "test": "Form-deprivation myopia in unilaterally goggled chicks, intravitreal drug for one week", "conditions": "for axial length measured by digital calipers, goggled eyes, drug effect / axial length measured by ultrasound, goggled eyes, drug effect / equatorial diameter measured by calipers (equatorial expansion of vitreous cavity), goggled eyes, drug effect / refraction of goggled eyes (myopic refractive error), drug effect / vitreous cavity length measured by ultrasound, goggled eyes, drug effect: difference goggled vs contralateral open eye, ANOVA over all doses"}, "[5]": {"conditions": "two hours after single intravitreal injection of 50 μg"}, "[6]": {"conditions": "goggled chicks, P<0.05, dose groups that differ"}, "[7]": {"conditions": "intravitreal, one week, hydrobromide"}, "[8]": {"conditions": "intravitreal, one week, listed as Dihydro-β-erythroidine, hydrobromide"}}, "note": "Several values for one entry are separate records, joined by “and”; a condition that tells them apart may be missing. Equal entries are not always repeated. Entries after “also recorded” stand apart in the source; their conditions may differ. Structures can show the parent of a compound that is named as a salt.", "data": [{"smiles": "CNC1(C)C2CCC(C2)C1(C)C", "note": "(centres unmarked) [mecamylamine]", "values": [{"measurement": "pupil diameter, change from baseline", "setting": "[1]; 24 hours after single intravitreal injection of 50 μg", "value": "0.4±0.1", "unit": "mm"}, {"measurement": "pupil diameter, change from baseline", "setting": "[1]; two hours after single intravitreal injection of 1 μg", "value": "0.8±0.2", "unit": "mm"}, {"measurement": "pupil diameter, change from baseline", "setting": "[1]; [5]", "value": "0.3±0.1", "unit": "mm"}, {"measurement": "retinas, gross and histological appearance", "setting": "[2]", "value": "indistinguishable grossly or histologically from vehicle treated control eyes"}, {"measurement": "growth or refraction of non-goggled eyes", "setting": "[3]", "value": "no influence"}, {"measurement": "induced myopia (refraction) of goggled eyes at the 50 μg dose", "setting": "[4]; 50 μg daily intravitreal, one week", "value": "virtually eliminated the induced myopia"}, {"measurement": "axial length measured by digital calipers, goggled eyes, drug effect", "setting": "[4]; intravitreal, one week", "value": "no statistical effect"}, {"measurement": "axial length measured by ultrasound, goggled eyes, drug effect", "setting": "[4]; intravitreal, one week", "value": "only a trend towards a drug effect"}, {"measurement": "equatorial diameter measured by calipers (equatorial expansion of vitreous cavity), goggled eyes, drug effect", "setting": "[4]; intravitreal, one week", "value": "influenced"}, {"measurement": "refraction of goggled eyes (myopic refractive error), drug effect", "setting": "[4]; intravitreal, one week", "value": "altered refraction of goggled eyes; also recorded: influenced the myopic refraction occurring beneath a goggle"}, {"measurement": "vitreous cavity length measured by ultrasound, goggled eyes, drug effect", "setting": "[4]; intravitreal, one week", "value": "influenced the ultrasound measurements of vitreous cavity length"}, {"measurement": "Caliper measurements equatorial diameter: statistically significant post hoc pairwise comparisons (Tukey test)", "setting": "[4]; [6]", "value": "did not identify any individual doses that differed from the controls"}, {"measurement": "Ultrasound measurements vitreous cavity depth: statistically significant post hoc pairwise comparisons (Tukey test)", "setting": "[4]; [6]", "value": 50, "unit": "μg vs. 1 μg"}, {"measurement": "refraction: statistically significant post hoc pairwise comparisons (Tukey test)", "setting": "[4]; [6]", "value": "only the 50 μg dose differed significantly from the controls and 200 μg vs. 1 μg and 100 μg vs. 1 μg"}, {"measurement": "Ultrasound measurements vitreous cavity depth: statistically significant post hoc pairwise comparisons (Tukey test)", "setting": "[4]; goggled chicks, P<0.05, dose groups that differ, listed as Mecamylamine", "value": "the 1 μg dose as different from the 50 μg dose but not from the controls"}, {"measurement": "overall effect on excessive ocular growth / experimental myopia of goggled eyes", "setting": "[4]; intravitreal, one week", "value": "multiphasic response that differed between the low and high drug doses; also recorded: reduced the excessive ocular growth occurring beneath a goggle"}, {"measurement": "growth and myopic refractive shift of goggled eyes at the lowest doses", "setting": "[4]; lowest doses (1 and 10 μg) daily intravitreal", "value": "tended toward stimulating the growth and myopic refractive shift of goggled eyes"}]}, {"smiles": "Br.COC1CC=C2CCN3CCC4=C(CC(=O)OC4)C23C1", "note": "(stereo not drawn) [dihydro-β-erythroidine, dihydro-β-crythroidine hydrobromide]", "values": [{"measurement": "pupil diameter, change from baseline", "setting": "[1]; [5]", "value": "1.0±0.1", "unit": "mm"}, {"measurement": "axial length measured by digital calipers, goggled eyes, drug effect", "setting": "[4]; intravitreal, one week", "value": "significant reduction"}, {"measurement": "axial length measured by ultrasound, goggled eyes, drug effect", "setting": "[4]; intravitreal, one week", "value": "none of the differences in refraction, ultrasound measurements or caliper measurements of the equatorial diameter reached statistical significance"}, {"measurement": "equatorial diameter measured by calipers (equatorial expansion of vitreous cavity), goggled eyes, drug effect", "setting": "[4]; intravitreal, one week", "value": "none of the differences in refraction, ultrasound measurements or caliper measurements of the equatorial diameter reached statistical significance"}, {"measurement": "vitreous cavity length measured by ultrasound, goggled eyes, drug effect", "setting": "[4]; intravitreal, one week", "value": "none of the differences in refraction, ultrasound measurements or caliper measurements of the equatorial diameter reached statistical significance"}, {"measurement": "refraction of goggled eyes (myopic refractive error), drug effect", "setting": "[4]; [7]", "value": "had no effect on the refraction of visually deprived eyes"}, {"measurement": "refraction of goggled eyes (myopic refractive error), drug effect", "setting": "[4]; [8]", "value": "none of the differences in refraction, ultrasound measurements or caliper measurements of the equatorial diameter reached statistical significance"}, {"measurement": "Caliper measurements axial length: statistically significant post hoc pairwise comparisons (Tukey test)", "setting": "[4]; [6]", "value": "no individual drug dose was identified"}, {"measurement": "overall effect on excessive ocular growth / experimental myopia of goggled eyes", "setting": "[4]; [7]", "value": "weaker as only the axial measurements by calipers showed a statistically significant drug effect"}, {"measurement": "overall effect on excessive ocular growth / experimental myopia of goggled eyes", "setting": "[4]; [8]", "value": "only a weak effect against experimental myopia"}]}, {"smiles": "CCN1C[C@]2(COC(=O)c3ccccc3N3C(=O)C[C@H](C)C3=O)CC[C@H](OC)[C@@]34[C@@H]5C[C@H]6[C@H](OC)[C@@H]5[C@](O)(C[C@@H]6OC)[C@](O)([C@@H](OC)[C@H]23)[C@@H]14", "note": "[methyllycaconitine, methyllcaconitine citrate]", "values": [{"measurement": "pupil diameter, change from baseline", "setting": "[1]; two hours after single intravitreal injection of 5 μg", "value": "0.4±0.2", "unit": "mm"}, {"measurement": "anterior chamber depth of goggled eyes, drug effect", "setting": "[4]; intravitreal, one week, ANOVA", "value": "no effect"}]}]}
